Test results reported in patent publication US20260306640A1, “TECHNOLOGIES TARGETING CELL STATES” (Auron Therapeutics, Inc., priority 2023, published 2026).
Where two headings read alike, the source gives them in different places.

What was measured:
epithelial GSEA = assay: Epithelial GSEA in LASCPC-01 cells; format: cell-based; conditions: LASCPC-01 cells as compared to DMSO; FIG. 3 (C)
Procedure: FIG. 3. Provided compounds can provide various activities. (A): Provided technologies can reduce KAT2A and KAT2B levels and histone acetylation levels. […] Cell viability (Cell Titer Glo) data relative to DMSO control after 7 days of treatment with compound 22 are presented as examples to confirm inhibition. GI50=5 nM. (C): Provided technologies can modulate cell states and induce differentiation. […] (D): Provided technologies can reduce KAT2A and KAT2B levels and histone acetylation levels including in neuroendocrine prostate cancer primary patient organoid. […] Concentrations are nM. […] Cell viability data relative to DMSO control after 21 days of treatment with compound 22 are presented as examples to confirm inhibition. GI50=3 nM. (F): Provided technologies can modulate cell states and induce differentiation.

NCI-H1876 cells = assay: Cell growth inhibition, SCLC cell line NCI-H1876 (cell count, day 10); format: cell-based; conditions: 240 h; NCI-H1876, day 10, cell count
Text: (§1) Among other things, provided technologies are useful for treating various diseases, disorders, or conditions. For example, in some embodiments, provided technologies are useful for treating cancer as confirmed in the present Example. […] In some embodiments, provided technologies can inhibit cell proliferation. In some embodiments, the present disclosure provides technologies for assessing various technologies, e.g., compounds, compositions, or methods. Among other things, the present Example provides technologies, e.g., cell growth inhibition assay, for assessing various technologies. […] In some embodiments, the following cell growth inhibition methods are utilized to assess provided technologies.
(§2) SCLC: SCLC cell lines NCI-H1048 and NCI-H1876 were cultured in DMEM F12 media with 5% FBS, 1% Penicillin/Streptomycin and HITES supplement (Hydrocortisone, Insulin, Transferrin, Estradiol and Sodium Selenite). NCI-H1048 cells were plated at 10,000 cells/well of a 24-well plate and NCI-H1876 cells were plated at 20,000 cells/well of a 96-well plate. Compound and media were replenished every two days out to day 11 and 10 respectively. Cells were then trypsinized and counted using either hemocytometer or an automated Countess cell counter.

NCI-H1048 cells = assay: Cell growth inhibition, SCLC cell line NCI-H1048 (cell count, day 11); format: cell-based, human; conditions: for GI50: Homo sapiens
Text: as §1, §2
In some assessments, for cell growth inhibition, cells, e.g., MOLM13, NCI-H1048, and LASCPC-01 cells, were counted using a hemocytometer or automated cell counting in triplicates. In some assessments, proliferation in NEPC organoids as measured with Cell Titer Glo reagent (Promega). Growth inhibition was determined relative to vehicle control.

KAT2B = KAT2B (Homo sapiens, UniProt Q92831); assay: Western blot of KAT2B in NCI-H1048 tumors, 168 hours post last dose; format: in vivo; parameters: degrader, Western blot; conditions: FIG. 1 (F)
Procedure: FIG. 1. Provided compounds can provide various activities including inhibiting tumor growth in vivo. (A): Provided compounds can inhibit tumor growth in vivo. Nude Balb/c mice were inoculated with NCI-H1048 cells in Matrigel. Tumors were allowed to grow up to about 200 mm^3 and mice were then randomized into two groups. Mice were dosed intraperitoneally (i.p.) once per week with vehicle or 30 mg/kg compound 22. Tumor size was measured every three to four days and mice were sacrificed once vehicle tumors reached 2000 mm^3. Error bar is SEM. Dosing started at day 17 post tumor inoculation. (B): Provided technologies can reduce KAT2A and KAT2B levels and histone acetylation levels. […] Vehicle is DMSO. […] Cell count data relative to DMSO control after 8 days of treatment with compound 22 are presented as examples to confirm inhibition. GI50=6 nM. (D): Provided technologies can inhibit tumor growth in vivo. Nude balb/c mice inoculated with H1048 tumors were dosed intraperitoneally once per week (qw i.p.) with vehicle (HbCD) or compound 22. Average tumor volumes+/−SEM from 6 mice are represented. […] See also (A). […] Certain body weights relative to starting weight are presented as examples to confirm tolerability and safety. (F): Provided technologies can reduce KAT2A and KAT2B levels and histone acetylation levels in tumor in vivo. […]

CD86 in MOLM-13 cells = assay: Flow cytometry for CD86 (monocytic differentiation) in MOLM-13; format: cell-based; conditions: FIG. 2
Procedure: In some assessments, flow cytometry was utilized to assess levels of cells expressing certain polypeptides. For example, for flow cytometry for CD86 in MOLM-13, MOLM13 cells were stained with Live/Dead solution (Fixable Live/Dead NIR 1:100 in PBS) at RT, in the dark, for 20 min and then washed once with cell staining solution. The cells were then blocked with Human Fc Blocker solution at RT for 8 mins. Then they were labeled with CD86-APC R700 (565149, BD) (2.5 uL/test) on ice for 30 min in the dark. Following incubation, cells were washed once with cell staining solution. Flow cytometric acquisition was done on BD Celesta flow cytometer (BD Biosciences) and analyses were performed using Flow-Jo software.

KAT2B, sequence (Q92831 whole entry): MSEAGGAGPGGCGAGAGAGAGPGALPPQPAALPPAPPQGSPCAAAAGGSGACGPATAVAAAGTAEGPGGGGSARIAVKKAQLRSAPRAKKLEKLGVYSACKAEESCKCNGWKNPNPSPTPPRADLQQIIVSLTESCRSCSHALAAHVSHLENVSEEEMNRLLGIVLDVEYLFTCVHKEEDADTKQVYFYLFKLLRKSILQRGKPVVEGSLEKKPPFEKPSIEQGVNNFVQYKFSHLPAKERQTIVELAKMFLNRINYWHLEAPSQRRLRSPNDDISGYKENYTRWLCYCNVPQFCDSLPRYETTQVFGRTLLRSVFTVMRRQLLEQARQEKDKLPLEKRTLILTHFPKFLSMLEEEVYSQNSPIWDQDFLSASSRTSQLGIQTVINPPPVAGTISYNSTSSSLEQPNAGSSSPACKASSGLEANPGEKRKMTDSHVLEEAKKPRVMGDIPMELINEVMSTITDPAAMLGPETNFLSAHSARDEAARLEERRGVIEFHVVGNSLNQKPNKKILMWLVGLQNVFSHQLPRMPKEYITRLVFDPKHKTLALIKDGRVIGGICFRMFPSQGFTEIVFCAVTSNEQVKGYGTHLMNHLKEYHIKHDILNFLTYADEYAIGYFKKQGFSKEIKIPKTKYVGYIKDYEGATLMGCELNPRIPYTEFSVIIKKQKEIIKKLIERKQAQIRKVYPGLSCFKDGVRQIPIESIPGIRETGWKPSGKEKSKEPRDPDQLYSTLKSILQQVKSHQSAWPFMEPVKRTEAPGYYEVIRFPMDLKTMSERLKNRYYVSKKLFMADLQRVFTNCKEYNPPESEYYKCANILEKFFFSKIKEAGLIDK

GI50 (NCI-H1876 cells): 1 nM
GI50 (NCI-H1048 cells; 264 h, NCI-H1048, day 11, cell count, read-out: H1048 GI50): 1 nM
GI50 (NCI-H1048 cells; NCI-H1048, comparison table with Ref-1, read-out: Growth GI50): 1.5 nM
reduction of KAT2B in tumor (KAT2B): significant reduction
SMILES: CN1C[C@H](Nc2cnn(C)c(=O)c2Br)C[C@H](c2ccc(C(=O)N3CCC(CN4CCN(c5ccc6c(c5)CN(C5CCC(=O)NC5=O)C6=O)CC4)CC3)cc2)C1 (stereo partly drawn) [Compound 22, 3-(5-(4-((1-(4-((3R,5R)-5-((5-bromo-1-methyl-6-oxo-1,6-dihydropyridazin-4-yl)amino)-1-methylpiperidin-3-yl)benzoyl)piperidin-4-yl)methyl)piperazin-1-yl)-1-oxoisoindolin-2-yl)piperidine-2,6-dione]
epithelial GSEA (epithelial GSEA): significant upregulation
cell growth in vitro (NCI-H1048 cells; NCI-H1048 cells, FIG. 1): inhibit cell growth in vitro and in vivo
induction of differentiation (CD86) (CD86 in MOLM-13 cells): induce differentiation (e.g., monocytic differentiation as assessed using CD86)
